Results from PubChem BioAssay (NCI).
Several values for one entry are separate records, joined by “and”; a condition that tells them apart may be missing. Equal entries are not always repeated.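 The compound was tested at five concentrations on cells cultured in 96-well plates, with a 48-hour exposure period. GI50 is the concentration that inhibits growth by half. Definition used: TGI = concentration required for complete inhibition of growth.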

Assays:
Assay in all cases: NCI-60 cell line screen, 48 h
[1] = system: HT29 colon
[2] = system: SN12C renal
[3] = system: TK-10 renal
[4] = system: MALME-3M melanoma
[5] = system: BT-549 breast
[6] = system: CAKI-1 renal
[7] = system: NCI-H522 lung
[8] = system: COLO 205 colon
[9] = system: HL-60(TB) leukemia
[10] = system: MCF7 breast

SMILES	TGI [1] [µM]	TGI [2] [µM]	TGI [3] [µM]	TGI [4] [µM]	TGI [5]	TGI [6] [µM]	TGI [7] [µM]	TGI [8] [µM]	TGI [9] [µM]	TGI [10] [µM]	GI50 [1] [µM]	GI50 [10] [µM]	GI50 [4] [µM]	GI50 [2] [µM]	GI50 [3] [µM]	GI50 [9] [µM]	GI50 [6] [µM]	GI50 [7] [µM]	GI50 [8] [µM]	GI50 [5]
Cc1cc2c(c(=O)n1C)SCC2	> 100	> 100	> 100	> 100	> 100 µM	> 100	> 100	> 100	–	–	–	–	–	–	–	–	–	–	–	–
CC1(C2CCC3(C)OC3C2)CO1 (stereo not given)	> 100	> 100	> 100	> 100	–	> 100	> 100	> 100	> 100	–	–	–	–	–	–	–	–	–	–	–
CCN(CC)c1nc(N(C)C)c2ccccc2n1	> 100	> 100	> 100	> 100	> 100 µM	> 100	96.9	83.3	> 100	> 100	–	–	–	–	–	–	–	–	–	–
Cc1ccc(S(=O)(=O)n2cc(C#N)c(C#N)c2)cc1	65.9	69.1	> 100	33.9	45.2 µM	59.1	40	68.2	71.6	48.2	–	–	–	–	–	–	–	–	–	–
CN1C(=O)C(O)CC1c1cccc(C(F)(F)F)c1 (stereo not given)	> 100	> 100	> 100	> 100	> 100 µM	> 100	> 100	> 100	> 100	> 100	–	–	–	–	–	–	–	–	–	–
CC(C)(C)C1CC[C@H](O)[C@H]([C@H](O)CC2CC(=O)N(c3ccccc3)C(=O)C2)C1 (stereo not given in full)	> 100	> 100	> 100	> 100	> 100 µM	> 100	> 100	–	> 100	> 100	–	–	–	–	–	–	–	–	–	–
COC(=O)c1c(-c2ccc(Cl)cc2)cc2c3ccccc3n(C)c2c1C(=O)OC	> 100	> 100	> 100	> 100	> 100 µM	> 100	> 100	> 100	> 100	> 100	–	–	–	–	–	–	–	–	–	–
CCCNc1ncnc2[nH]ncc12	> 100	> 100	> 100	> 100	> 100 µM	> 100	> 100	> 100	> 100	> 100	–	–	–	–	–	–	–	–	–	–
C#CCC1(C(=O)OCC)C(=O)c2ccccc2N(C)C1=O (stereo not given)	> 100	> 100	> 100	> 100	–	> 100	27.3	> 100	> 100	–	–	–	–	–	–	–	–	–	–	–
CN(C)C(=S)Oc1ccc2ccc(=O)oc2c1	> 100	> 100	> 100	> 100	> 100 µM	> 100	> 100	> 100	> 100	> 100	–	–	–	–	–	–	–	–	–	–
Cc1ccccc1OC(C)C(=O)NN1C(=O)CC(=O)N(c2ccccc2)C1=S (stereo not given)	> 100	> 100	> 100	> 100	> 100 µM	> 100	> 100	> 100	61.2	> 100	–	–	–	–	–	–	–	–	–	–
CCN(CC)c1ccc2cc(-c3nc4ccccc4c(=O)[nH]3)c(=N)oc2c1	> 100	> 100	> 100	> 100	> 100 µM	> 100	> 100	> 100	> 100	> 100	–	–	–	–	–	–	–	–	–	–
NCCC1CN(C(=O)OCc2ccccc2)c2ccccc21 (stereo not given)	25.8	27.3	> 54.8	29.1	40.4 µM	> 50.7	28.8	31.5	–	22.9	–	–	–	–	–	–	–	–	–	–
C(/Cc1ccc2c(c1)OCO2)=N\NC1=NCCCN1	> 100	> 100	> 100	> 100	> 100 µM	–	> 100	> 100	> 100	> 100	–	–	–	–	–	–	–	–	–	–
COC(=O)[C@@H]1CN(C(=O)c2ccccc2)C(=O)N1C(=O)OCc1ccccc1	> 100	> 100	> 100	> 100	–	> 100	> 100	> 100	> 100	> 100	–	–	–	–	–	–	–	–	–	–
O=c1cc(NCc2ccncc2)[nH]c(=O)[nH]1	> 100	> 100	> 100	> 100	> 100 µM	> 100	> 100	> 100	> 100	> 100	–	–	–	–	–	–	–	–	–	–
CCOC(=O)c1cn(C)c(=S)n2c1nc1ccccc12	–	> 100	–	–	> 100 µM	> 100	–	> 100	–	> 100	–	–	–	–	–	–	–	–	–	–
CSc1nc(NC(C)C)c2c(n1)Sc1nc3ccccc3n1C2O (stereo not given)	> 100	> 100	> 100	49.6	> 100 µM	> 100	24.7	14.3	–	> 100	–	–	–	–	–	–	–	–	–	–
CCOC(=O)C1CCCCN1CCc1c[nH]c2ccccc12 (stereo not given)	> 100	> 100	> 100	> 100	> 100 µM	> 100	> 100	> 100	–	> 100	–	–	–	–	–	–	–	–	–	–
CCOC(=O)C1(C(F)(F)F)N=C(CC)OC(N2CCOCC2)=N1 (stereo not given)	> 100	> 100	> 100	–	> 100 µM	> 100	> 100	> 100	> 100	> 100	–	–	–	–	–	–	–	–	–	–
COC(=O)C1=C(O)C(C(=O)OC)[C@]2(O)[C@H](C(=O)OC)[C@H]1C[C@@H](c1ccc([N+](=O)[O-])cc1)[C@H]2C(=O)OC (stereo not given in full)	55.6	47.7	> 100	17.5	39.7 µM	> 100	8.58	65.2	45.8	–	–	–	–	–	–	–	–	–	–	–
O=[N+]([O-])c1cccnc1-n1cnc2ccccc21	> 100	–	> 100	> 100	> 100 µM	> 100	–	> 100	> 100	> 100	–	–	–	–	–	–	–	–	–	–
O=C1C=CC(=O)c2c(Cl)ccc(O)c21	44.9	39	–	32.7	–	16.1	26.8	25.8	18.5	31.1	–	–	–	–	–	–	–	–	–	–

SMILES	TGI [1] [µM]	TGI [2] [µM]	TGI [3] [µM]	TGI [4] [µM]	TGI [5]	TGI [6] [µM]	TGI [7] [µM]	TGI [8] [µM]	TGI [9] [µM]	TGI [10] [µM]	GI50 [1] [µM]	GI50 [10] [µM]	GI50 [4] [µM]	GI50 [2] [µM]	GI50 [3] [µM]	GI50 [9] [µM]	GI50 [6] [µM]	GI50 [7] [µM]	GI50 [8] [µM]	GI50 [5]
C=CC1CN2CCC1CC2C(O)c1ccnc2ccccc12 (stereo not given)	> 100	> 100	> 100	> 100	> 100 µM	> 100	–	> 100	> 100	> 100	> 100	5.05	0.0846	–	–	–	–	–	–	–
CC(=O)/C(=C\c1ccc(Cl)c(Cl)c1)C(=O)C(C)CN(C)C (stereo not given)	24.1	20.6	5.82	21.9	8.92 µM	17.1	–	24.4	5.36	22.4	–	–	–	–	–	–	–	–	–	–
Cn1c2ccccc2n2c3ncccc3c(=S)c(C#N)c12	> 100	> 100	–	> 100	> 100 µM	> 100	> 100	> 100	> 100	> 100	–	–	–	–	–	–	–	–	–	–
CO[C@]1(CN2CCN3CCCC[C@@H]3C2)/C=C/C[C@H](C)[C@@H](C)S(=O)(=O)NC(=O)c2ccc3c(c2)N(C[C@@H]2CC[C@H]21)C[C@@]1(CCCc2cc(Cl)ccc21)CO3	–	3.08	6.39	–	–	4.24	1.93	–	0.153	–	–	–	–	1.6	2.33	0.0297	1.79	0.37	–	–
Cc1nc(-c2cc3cc(Cl)ccc3oc2=O)cc2c1c(=O)oc1ccc(Cl)cc12	> 100	> 100	> 100	–	> 100 µM	–	> 100	> 100	> 100	> 100	–	–	–	–	–	–	–	–	–	–
CSc1ccc(/C=C2\N=C(c3ccccc3)N(/N=C/c3cc4cc(C)ccc4nc3Cl)C2=O)cc1	62.1	35.6	33.5	–	56.5 µM	45.3	–	39.4	47.5	43.2	–	–	–	–	–	–	–	–	–	–
Cc1[nH]c(=O)[nH]c(=S)c1C(=O)Nc1cccc2cc3ccccc3cc12	> 100	> 100	> 100	> 100	> 100 µM	> 100	–	> 100	> 100	> 100	–	–	–	–	–	–	–	–	–	–
Cc1csc(NC(=NCCN2CCOCC2)Nc2nc(C)cs2)n1	> 100	> 100	–	> 100	–	> 100	> 100	> 100	> 100	> 100	–	–	–	–	–	–	–	–	–	–
CCC(CC(C)C)Nc1ccc(NC(CC)CC(C)C)cc1 (stereo not given)	30.5	32.2	32.3	34.3	–	> 100	15.1	23	30.2	28.4	15.1	15.2	14.7	16	17.7	10.6	40.2	3.82	11	–
CO[C@H]1C[C@H](O[C@H]2CC[C@]3(C=O)[C@H]4CC[C@]5(C)[C@@H](C6=CC(=O)OC6)CC[C@]5(O)[C@@H]4CC[C@]3(O)C2)O[C@H](C)[C@H]1O	–	0.201	0.758	2.86	0.818 µM	0.0947	0.499	1.83	2.51	13.1	–	–	–	–	–	–	–	–	–	–
CC(=O)Nc1cc(Nc2cc(=O)[nH]c(=O)[nH]2)ccc1C	–	> 100	> 100	> 100	> 100 µM	–	–	> 100	> 100	> 100	–	–	–	–	–	–	–	–	–	–
CCOP(=O)(OCC)C(C)(CC)NC(=O)C(C(F)(F)F)C(F)(F)F (stereo not given)	> 100	> 100	> 100	> 100	99.7 µM and > 100 µM	> 100	–	> 100	64.6	> 100	–	–	–	–	–	25.8	–	–	–	19.3 µM and 3.87 µM
COc1ccccc1CNCCCCCCCCCCCCN1C(=O)c2ccc3c4c(ccc(c24)C1=O)C(=O)N(CCCCCCCCCCCCNCc1ccccc1OC)C3=O	> 50	> 50	1.47	> 50	20.2 µM	> 50	> 50	> 50	> 50	–	2.01	–	> 50	> 50	0.795	> 50	> 50	> 50	> 50	7.74 µM
CC(=O)CC(=O)CCC(=O)O	> 100	> 100	> 100	> 100	–	> 100	> 100	> 100	> 100	–	–	–	–	–	–	–	–	–	–	–
Nc1ncnc2c1ncn2Cc1cccc(CCl)c1	> 100	29.3	34.4	37.7	25.8 µM	37	32.5	–	> 100	30.3	–	–	–	–	–	–	–	–	–	–
CC(C)(C)OC(=O)n1cc(C2CN(O)C(=O)C23CCC(=O)N3Cc2ccccc2)c2ccccc21 (stereo not given)	> 100	81.8	> 100	> 100	–	> 100	31.7	> 100	> 100	> 100	–	–	–	–	–	–	–	–	–	–
CCOP(=O)(OCC)/C(C#N)=C/c1cccn1Cc1ccccc1	> 100	> 100	> 100	> 100	74.7 µM	> 100	86.8	44.5	–	> 100	–	–	–	–	–	–	–	–	–	–
O=C1c2ccccc2C(=O)N1c1nc(-c2ccc(Cl)cc2)cc(N2N=C(c3ccc(Br)cc3)CC2c2ccccc2)n1 (stereo not given)	9.66	17.1	> 49	> 60.6	16.8 µM	–	5.51	4.84	> 100	4.57	–	–	–	–	–	–	–	–	–	–
O=C(/C=C/c1cccs1)c1ccccc1Cl	42.5	30.2	32.3	26.7	–	23	15	38.6	30.4	18.2	–	–	–	–	–	–	–	–	–	–
C/C(=N\Nc1nc2ccccc2[nH]1)c1cc2ccccc2cn1	1.02	1.06	5.16	0.664	21.2 µM	1.32	1.13	–	–	2.31	–	–	–	–	–	–	–	–	–	–
COc1c(C)c(C/C=C(\C)CC/C=C(\C)CCC=C(C)C)c(OC)c(OC)c1OC	> 100	> 100	> 100	–	> 100 µM	> 100	> 100	> 100	–	> 100	–	–	–	–	–	–	–	–	–	–
O=C(CC1Sc2ccccc2NC1=O)Nc1ccc(Cl)cc1 (stereo not given)	> 100	> 100	> 100	> 100	–	> 100	> 100	> 100	> 100	–	–	–	–	–	–	–	–	–	–	–
